According to patent publication US20040047804A1, “Enhanced radiation therapy” (The General Hospital Corporation, a Massachusetts …, priority 1998, published 2004):
Read-outs that look alike come from different tables or passages of the source.

Columns and labels:
[1] = test system: VX2 tumors; test: In vivo radiation enhancement, systemic radiodense material plus internal radiation probe; parameters: species or system rabbit; conditions: systemic bolus 3 ml/kg
Experimental: Three rabbits with VX2 tumors growing in the thigh were used to evaluate the radiation therapy effect of the new radiodense compositions and radiation administered internally. In the first rabbit, iohexol was injected systemically as a bolus in a volume of 3 ml/kg, resulting in a peak enhancement of the leaky edge of the tumor by over 50 HU. Radiation of 30 Gy was administered over 45 minutes using a delivery energy of 40 Kev from the probe tip, which was centered in the tumor. The next day, the rabbit was euthanized following the administration of Evans Blue to demarcate the leaky vasculature of the treated tumor as well as an untreated, control tumor in the opposite thigh. […] All of the viable cells were located in the edge of the treated tumor and this edge of viable cells was much smaller than the rim of viable cells in the untreated tumor. Two additional rabbits were treated with a nearly identical protocol, except that the same radiodense material was given as an intravenous bolus plus a sustaining infusion to keep the leaky portions of the tumor enhanced for the entire duration of the radiation treatment. In these two experiments, no evidence of viable tumor was seen on serial computed tomography studies over the next several days. […]

[2] = test system: human adenocarcinomas (LS 174T); parameters: species or system mice; conditions: mouse, in vivo
Experimental: Immunologically tolerant mice were implanted with several different human neoplasms. When the tumors reached a size of 1-2 cm, radiodense compositions were injected intratumorally via a percutaneous route using a 27 gauge needle. The mice and their tumors where then serially imaged with computed tomography to determine the local pharmacokinetics of the injectates by measuring the x-ray attenuation (in HU) of regions of interest.
FIG. 3 is a plot of the temporal change of x-ray attenuation in a mouse bearing a human adenocarcinomas (LS 174T). The radiodense material was a water soluble, small molecule radiodense material (Omnipaque™ with a concentration of 350 mg I/ml as iohexol). A peak contrast of nearly 3000 HU was attained in the center of the tumor, with smaller degrees of contrast enhancement surrounding the injected area. This small molecule was rapidly cleared with values of only 2000 HU at the peak location 60 minutes later.

[3] = test system: VX2 tumors
Experimental: About […] of either a small molecule radiodense material (iohexol) or a large molecule radiodense material (WIN 8883) was injected directly into separate VX2 tumors growing in the thigh of a rabbit. To measure the diffusion time of the two materials in the tumor interstitium, the rabbit was euthanized and the corpus imaged using CT over the next 24 hours to measure the spatial and temporal distribution of each material.

[4] = test system: V79 Chinese Hamster Ovary cancer cells; test: In vitro radiation enhancement, survival of irradiated tumor cells; format: cell-based; conditions: radiation dosage of 9.0 Gy
Source text: The effect of the new radiodense compositions on cancer cells was also studied in vitro. Individual V79 Chinese Hamster Ovary cancer cells were suspended in nutrient medium in test tubes and mixed with a sufficient amount of one of several new radiodense compositions to increase the radiodensity of the cell suspension. […] At a radiation energy level of 12 Gy, about 8×10^-1 cells survived in the nutrient medium alone, while only 1×10^-3 to 1×10^-4 survived in the presence of the radiodense materials.

Row | peak enhancement of the leaky edge of the tumor [1] | x-ray attenuation at the peak location 60 minutes later [2] | Structure (SMILES) | necrosis of viable tumor cells in the treated leg, compared with the control ([1]; 30 Gy over 45 minutes at 40 Kev from probe centered in tumor, histology next day) | Volume (total number of intratumoral voxels containing at least 200 HU) ([3]; 1.5 Hrs) | Volume (total number of intratumoral voxels containing at least 200 HU) ([3]; 4.5 Hrs) | Volume (total number of intratumoral voxels containing at least 200 HU) ([3]; 21.0 Hrs) | Volume (total number of intratumoral voxels containing at least 200 HU) ([3]; Initial) | relative effectiveness among the radiodense materials [4]
1 | over 50 HU | 2000 HU | CC(=O)N(CC(O)CO)c1c(I)c(C(=O)NCC(O)CO)c(I)c(C(=O)NCC(O)CO)c1I (stereo not drawn) [iohexol] | about 95% | 23912 voxels | 22104 voxels | 44720 voxels | 12722 voxels | –
2 | – | – | CCOC(=O)c1c(I)c(NC(C)=O)c(I)c(NC(C)=O)c1I [Win 8883, ethyl-bis(3,5-acetylamino)-2,4,6-triiodobenzoate] | – | 10898 voxels | 11826 voxels | 11682 voxels | 10420 voxels | –
3 | – | – | CC(=O)N(CC(O)CN(C(C)=O)c1c(I)c(C(=O)NCC(O)CO)c(I)c(C(=O)NCC(O)CO)c1I)c1c(I)c(C(=O)NCC(O)CO)c(I)c(C(=O)NCC(O)CO)c1I (stereo not drawn) [iodix, iodixanol] | – | – | – | – | – | more effective
